Laboratory results taken from patent US20140328799A1, “COMPOSITIONS USEFUL FOR THE TREATMENT OF VIRAL DISEASES” (priority 2011, published 2014).
“Also recorded” adds a separate entry of the source.

Tested on: HCV replicons encoding amino acid variations R155K, A156T, and D168Y in the NS3 protease
Test: HCV replicon TaqMan assay, variants compared with wildtype
Assay type: cell-based, Hepatitis C virus
Conditions: NS3 protease variants versus wildtype genotype 1b (con1)
Method: The day prior to titration replicon cells are seeded into a 96-well Costar black-walled clear bottom plate (3,000 cells/well) in 100 μl complete D-MEM and incubated 0/N at 37° C. The next morning 25 μl of compound dilutions (5× final concentration) in complete DMEM and 5% DMSO are added, adjusting the final DMSO concentration to 1.0%. Cells with compound are incubated for 48 hours at 37° C.
Total RNA is isolated from cells of each well using the QIAGEN RNeasy 96-well kit according to manufacturer's instructions (QIAGEN, Inc. Valencia, Calif.). RNA is eluted twice in 60 μl aliquots and combined. […]
The normalized value for the amount of replicon RNA is determined by measuring the experimental cycle threshold CT as described above, determining the amount of RNA against a standard curve of total replicon cell RNA, and normalizing this to the signal produced by the cellular human Cyclophilin A gene using Taqman PDAR Human Cyclophilin (Applied Biosystems Inc., Foster City, Calif.).
HCV replicons encoding amino acid variations R155K, A156T, and D168Y in the NS3 protease have been constructed using standard techniques in molecular cloning. The susceptibility of these replicon variants to inhibition by Compound 6 and a Compound T4, was assessed in the HCV replicon assay, and the results are shown in Table 2. […]

Row | SMILES | change in susceptibility to inhibition of replicon variants versus wildtype
1 | C[C@@]1(O)[C@H](O)[C@@H](CO)O[C@H]1n1cnc2c(N)ncnc21 [Compound T4] | no significant change in susceptibility to inhibition; also recorded: no loss of potency
2 | CC[C@@H]1C[C@]1(NC(=O)[C@@H]1C[C@@H]2CN1C(=O)[C@H](C(C)(C)C)NC(=O)OCC(C)(C)CCCCc1cccc3c1CN(C3)C(=O)O2)C(=O)NS(=O)(=O)C1CC1 [Compound 6] | significantly reduced susceptibility to inhibition; also recorded: significant losses of potency
